# In patent publication US6410054B1, “Immediate release eplerenone compositions” (G. D. Searle & Co., priority 1998, dated 2002):
# How the values were obtained:
# [1] = parameters: species or system beagle dogs; conditions: female, beagle, dog, in vivo
# Experimental: The effect of the particle size of the eplerenone starting material used in the pharmaceutical composition on eplerenone plasma concentrations and relative bioavailability was studied in a dog model. Four healthy female beagle dogs weighing between 8 to 12 kg were intragastrically administered one immediate release (IR) capsule containing the formulation described in Table 30A below followed by about 10 mL of water.
# The dogs were fasted for 15 to 20 hours prior to administration of the capsule and were not fed again until at least 4 hours after dose administration. Blood samples (approximately 3 mL) were collected by venipuncture in chilled tubes containing heparin at 0, 0.5, 1, 2, 3, 4, 6, 8 and 24 hours after dose administration. The blood samples were immediately placed on ice. Separation of plasma from the blood samples was complete after about 15 minutes of centrifugation. The resulting plasma samples were frozen at about −20° C. and stored until analyzed. Analysis was performed using an LC/MS/MS procedure.
# This study was conducted using the same four dogs for three formulations that were identical except for the particle size of the eplerenone starting material. […]
# [2] = Treatment of hypertension study: safety; type: in vivo, humans
# Experimental: (§1) The safety and efficacy of a range of doses of eplerenone in the treatment of hypertension relative to placebo were evaluated in a multi-center, randomized, double-blind, placebo-lead-in, parallel group study. […] The primary efficacy variable was the change in cuff diastolic blood pressure (ADBP; sitting) measured at trough plasma levels after eight weeks of double blind treatment. The secondary variables measured were the change in trough cuff systolic blood pressure (ΔSBP; sitting), change in 24 hour mean diastolic blood pressure (ΔDBP), and change in 24 hour mean systolic blood pressure (ΔSBP). The primary and secondary efficacy variables were analyzed to compare BID versus QD dosing regimens for each eplerenone dose group, and both eplerenone and spironolactone versus placebo. Changes in plasma renin and serum aldosterone after eight weeks of dosing were also analyzed as secondary measures of efficacy.
# All eplerenone doses lowered cuff diastolic and systolic pressures from baseline after eight weeks of treatment compared to placebo. […] There was, however, a trend toward greater reduction with the BID dosing regimen. […] Over the course of the study, the mean change in heart rate from baseline was minimal in all treatment groups, with the largest mean increase and decrease in heart rate being +2 beats/minute and −1.8 beats/minute, respectively. […] Safety was assessed by comparing the incidence of adverse events, withdrawals, and the results of urinalysis, hematology and biochemistry laboratory tests across the treatment group to the placebo group.
# [3] = tested on: renin and aldosterone; assay: Treatment of hypertension study: plasma renin and serum aldosterone; type: in vivo, humans
# Experimental: as §1, with “study. […] Four hundred and seventeen patients were randomized to one of eight treatments: (i) placebo BID; […] (iv) eplerenone 400 mg QD; (v) eplerenone 25 mg BID;” for “study.”, “The primary and secondary efficacy variables were analyzed to compare BID versus QD dosing regimens for each eplerenone dose group, and both eplerenone and spironolactone versus placebo.” left out
# [4] = ADME study: safety; type: in vivo, humans; conditions: single 100 mg oral solution
# Experimental: The study employed eight healthy male humans. Each subject received a single 100 mg oral dose of a solution of [^14C]eplerenone (specific activity 0.75 μCi/mg). Plasma, saliva, breath, urine and fecal samples were collected at predetermined intervals and analyzed for sample radioactivity and the concentration of eplerenone and its open lactone ring form. Safety was determined on the basis of laboratory tests, vital signs, and the occurrence and types of adverse events.
# Blood samples were collected at −0.5 (predose), 0.5, 1, 1.5, 2, 2.5, 3, 4, 6, 8, 12, 16, 24, 36, 48, 72 and 96 hours post dose. […] Individual fecal samples were collected beginning immediately after dosing and continuing through 0800 hours on day 8. In addition, one predose fecal sample was provided. Saliva samples were taken at 0.5 hour predose and at 0.5, 1, 2, 4, 6, 12, and 24 hours postdose. Breath samples were taken at 0.5 hour predose and at 1, 2, 3, 4, 6, 8, 12, 24, 36, 48 and 72 hours postdose.
# [5] = Solubility in aqueous solution; type: physicochemical; conditions: also micronized
# [6] = Multiple dose study: serum electrolytes, renin, aldosterone, sex hormone and thyroid profiles; type: in vivo, humans
# Experimental: Multiple oral dose tolerability and the pharmacokinetics of several dosages of eplerenone were evaluated in a double-blind, randomized, placebo-controlled, rising oral dose, sequential panel study of 40 healthy male subjects (five groups of eight subjects). The study medication was administered in […] sequential dose panels, with each panel including eplerenone, spironolactone and placebo. […] The 100 mg and 200 mg dose capsules corresponded to those described in Examples 7 and 8, respectively. Following a 48-hour interval, the study drug was administered once a day for 11 days. Antialdosterone activity was determined following a fludrocortisone challenge on Days 12-13.
# Excretion of total eplerenone (that is, eplerenone and its open ring lactone form) in the urine represented approximately 5% of the dose for all doses administered. Urinary excretion of total eplerenone occurred almost entirely within the first 24 hours after dosing.
# [7] = Single dose study: safety; type: in vivo; conditions: single 10-1000 mg oral doses, healthy male humans
# Experimental: Antialdosterone activity was determined based on urine levels of sodium and potassium following repeated administration of fludrocortisone. Safety was determined on the basis of laboratory tests, vital signs, and the occurrence and types of adverse events.
# [8] = all eplerenone treatment groups
structure (smiles),measurement,setting,value
"COC(=O)C1CC2=CC(=O)CCC2(C)C23OC2CC2(C)C(CC[C@@]24CCC(=O)O4)C13 (stereo partly drawn) [eplerenone, methyl hydrogen 9,11α-epoxy-17α-hydroxy-3-oxopregn-4-ene-7α,21-dicarboxylate, γ-lactone]",increase of relative bioavailability,[1],~100%
same,adverse side effects at the highest dose administered,[2]; 1000 mg,No adverse side effects
same,potassium,[2]; [8],small but consistent increases
same,sodium,[2]; [8],decreases
same,tolerability,[2]; each eplerenone dosing regimen,well tolerated
same,"BUN, uric acid levels compared to placebo",[2]; eplerenone treatment groups,increases
same,urine pH compared to placebo,[2]; eplerenone treatment groups,decreases
same,Plasma Renin Active Mean Change From Baseline,[3]; 25 mg BID,1.2 mU/L
same,Serum Aldosterone Mean Change From Baseline,[3]; 25 mg BID,7.3 ng/dL
same,Plasma Renin Active Mean Change From Baseline,[3]; 50 mg BID,15.0 mU/L
same,Serum Aldosterone Mean Change From Baseline,[3]; 50 mg BID,10.0 ng/dL
same,Plasma Renin Active Mean Change From Baseline,[3]; 50 mg QD,2.9 mU/L
same,Serum Aldosterone Mean Change From Baseline,[3]; 50 mg QD,6.0 ng/dL
same,Plasma Renin Active Mean Change From Baseline,[3]; 100 mg QD,13.9 mU/L
same,Serum Aldosterone Mean Change From Baseline,[3]; 100 mg QD,10.5 ng/dL
same,Plasma Renin Active Mean Change From Baseline,[3]; 200 mg BID,32.0 mU/L
same,Serum Aldosterone Mean Change From Baseline,[3]; 200 mg BID,32.8 ng/dL
same,Plasma Renin Active Mean Change From Baseline,[3]; 400 mg QD,21.2 mU/L
same,Serum Aldosterone Mean Change From Baseline,[3]; 400 mg QD,19.2 ng/dL
same,aldosterone compared to placebo,[3]; eight weeks of dosing,increases
same,total and active renin levels,[3]; eight weeks of dosing,increases
same,"changes in physical examinations, vital signs or clinical laboratory test results",[4],no clinically significant changes
same,serious adverse effects,[4],no serious adverse effects
same,solubility in aqueous solution,[5],largely insoluble
same,mean plasma renin (active and total) levels,[6]; 100-1000 mg,dose-related increases
same,serum aldosterone levels,[6]; 100-1000 mg,dose-related increases
same,serum sex hormone and thyroid profiles,[6]; 100-1000 mg,"did not show any consistent, sustained or dose-related effects"
same,serum potassium concentrations,[6]; multiple dose administration,increases
same,serum sodium concentrations,[6]; multiple dose administration,transient reductions
same,serum sodium and potassium concentrations,[6]; single doses,not significantly changed
same,"changes in physical examinations, vital signs or clinical laboratory results",[7],no clinically significant changes
same,severity of adverse events,[7],mild
